Measured values: patent publication US20250144067A1, “PERSONALIZED STARVATION THERAPY FOR CANCER” (Faeth Therapeutics, Inc., priority 2021, published 2025)
Counter-ions that a name gives are not always drawn.

Experiments:
[1] = tested on: NCI-H292 lung cancer cells; assay: FDA drug screening, complete media vs cholesterol-free media with simvastatin (TABLE 2); type: cell-based, human; conditions: for Cholesterol-free media + simvastatin (0.04 μM) / Complete Media: NCI-H292 cells
[2] = tested on: NCI-H292 lung cancer cells; assay: FDA drug screening, complete media vs cholesterol-free media without statin (TABLE 1); type: cell-based, human
[3] = cholesterol-free media with simvastatin 0.04 μM, cell growth value in FDA drug screen
[4] = complete media, cell growth value in FDA drug screen
[5] = complete media minus cholesterol-free media + simvastatin, >0 enhanced anti-cancer activity, about 0 neutral, <0 antagonist
[6] = Complete minus Cholesterol-free, greater than 0 enhanced anti-cancer activity, about 0 neutral, below 0 antagonists
[7] = NCI-H292 cells in cholesterol-free media without statin
[8] = NCI-H292 cells in complete media
[9] = cholesterol-free media with simvastatin 0.04 μM, FDA drug library screen (TABLE 2)
[10] = complete media, FDA drug library screen (TABLE 2)
[11] = complete media minus cholesterol-free media + simvastatin (0.04 μM), >0 enhanced anti-cancer activity, about 0 neutral, <0 antagonist
[12] = NCI-H292 cells, cholesterol-free media without statin, FDA drug library screen
[13] = NCI-H292 cells, complete media, FDA drug library screen
[14] = FDA drug library screen, cholesterol-free media with simvastatin 0.04 μM
[15] = FDA drug library screen, complete media
[16] = complete media vs cholesterol-free media + simvastatin (0.04 μM), >0 enhanced anti-cancer activity, about 0 neutral, <0 antagonist
[17] = Complete minus Cholesterol-free, greater than 0 enhanced anti-cancer activity, about 0 neutral, below 0 antagonist
[18] = NCI-H292 cells, FDA drug library screen, cholesterol-free media without statin
[19] = NCI-H292 cells, FDA drug library screen, complete media
[20] = NCI-H292 cells, cholesterol-free media without statin
[21] = complete vs cholesterol-free media, greater than 0 enhanced anti-cancer activity, about 0 neutral, below 0 antagonists
[22] = Complete minus Cholesterol-free, >0 enhanced anti-cancer activity, about 0 neutral, <0 antagonist

What does the source list for `Cc1ccc2c(c1)c1c(n2CCc2ccc(C)nc2)CCN(C)C1` [Latrepirdine (dihydrochloride)]?
Cholesterol-free media + simvastatin (0.04 μM) [1, 3]: 1.036; Complete Media [1, 4]: 1.07; Difference [1, 5]: 0.03; Difference [2, 6]: −0.58; Cholesterol-free [2, 7]: 1.66; Complete [2, 8]: 1.083

How did the “Cholesterol-free media + simvastatin (0.04 μM)” value [1, 9] turn out when `Nc1nc2[nH]cc(CCc3ccc(C(=O)N[C@@H](CCC(=O)O)C(=O)O)cc3)c2c(=O)[nH]1` [Pemetrexed (disodium hemipenta hydrate)] was run?
Its value is 0.2685.

What about the “Complete Media” value [1, 10] of the same molecule?
The value was 0.2746.

What about the Difference [1, 11] of the same molecule?
Its Difference is 0.01.

And the Cholesterol-free [2, 12]?
The Cholesterol-free was 0.09445.

What about the Complete [2, 13] of the same molecule?
The Complete was 0.1693.

What about the Difference ([2]; complete vs cholesterol-free media, >0 enhanced anti-cancer activity, about 0 neutral, <0 antagonist) of the same molecule?
The Difference was 0.07.

Which “Cholesterol-free media + simvastatin (0.04 μM)” value [1, 14] does the source give for `NC(=O)c1cccnc1` [Nicotinamide] here?
The value was 0.9853.

And the “Complete Media” value [1, 15]?
Its value is 0.9029.

What about the Difference [1, 16] of the same molecule?
Its Difference is −0.08.

And the Difference [2, 17]?
Its Difference is −0.17.

What about the Cholesterol-free [2, 18] of the same molecule?
The Cholesterol-free was 0.8882.

And the Complete [2, 19]?
Its Complete is 0.716.

`O=C(Oc1ccccc1C(=O)O)c1ccccc1O` [Salsalate] was tested. Which “Cholesterol-free media + simvastatin (0.04 μM)” value [1, 3] did it give?
Its value is 0.8804.

And the “Complete Media” value [1, 4]?
Its value is 0.9361.

What about the Difference [1, 5] of the same molecule?
Its Difference is 0.06.

What about the Cholesterol-free [2, 20] of the same molecule?
Its Cholesterol-free is 1.58.

What about the Complete ([2]; NCI-H292 cells, complete media) of the same molecule?
The Complete was 1.132.

And the Difference [2, 21]?
Its Difference is −0.45.

What does the source list for Rivastigmine (tartrate)?
Cholesterol-free media + simvastatin (0.04 μM) [1, 9]: 1.478; Complete Media [1, 10]: 1.417; Difference ([1]; complete media minus cholesterol-free media + simvastatin (0.04 μM), […]): −0.06; Cholesterol-free [2, 20]: 1.242; Complete ([2]; NCI-H292 cells, complete media): 0.9137; Difference ([2]; complete vs cholesterol-free media, […]): −0.33

How did the “Cholesterol-free media + simvastatin (0.04 μM)” value [1, 9] turn out when `COc1ccccc1OCC(O)CN1CCN(CC(=O)Nc2c(C)cccc2C)CC1` (stereo not drawn) [Ranolazine (dihydrochloride)] was run?
The value was 0.9671.

What about the “Complete Media” value [1, 10] of the same molecule?
The value was 0.9017.

What about the Difference [1, 11] of the same molecule?
Its Difference is −0.07.

And the Difference [2, 22]?
Its Difference is −0.23.

What about the Cholesterol-free [2, 20] of the same molecule?
The Cholesterol-free was 1.148.

What about the Complete ([2]; NCI-H292 cells, complete media) of the same molecule?
The Complete was 0.9194.

With `CC1(C)S[C@@H]2[C@H](NC(=O)Cc3ccccc3)C(=O)N2[C@H]1C(=O)O.CC1(C)S[C@@H]2[C@H](NC(=O)Cc3ccccc3)C(=O)N2[C@H]1C(=O)O.O.O.O.O.c1ccc(CNCCNCc2ccccc2)cc1` [Penicillin G benzathine (tetrahydrate)] as the molecule, how does the “Cholesterol-free media + simvastatin (0.04 μM)” value ([1]; drug in cholesterol-free media with simvastatin 0.04 μM) read?
Its value is 1.321.

What about the “Complete Media” value ([1]; drug in complete media) of the same molecule?
The value was 1.126.

What about the Difference [1, 16] of the same molecule?
The Difference was −0.20.

What about the Difference [2, 6] of the same molecule?
The Difference was −0.54.

And the Cholesterol-free [2, 7]?
The Cholesterol-free was 1.6.

And the Complete [2, 8]?
The Complete was 1.064.

Which “Cholesterol-free media + simvastatin (0.04 μM)” value [1, 3] does the source give for `CN1C[C@H](CNC(=O)OCc2ccccc2)C[C@@H]2c3cccc4c3c(cn4C)C[C@H]21` [Metergoline] here?
Its value is 0.7892.

And the “Complete Media” value [1, 4]?
The value was 0.8668.

And the Difference [1, 5]?
The Difference was 0.08.

What about the Cholesterol-free [2, 20] of the same molecule?
Its Cholesterol-free is 1.165.

What about the Complete ([2]; NCI-H292 cells, complete media) of the same molecule?
The Complete was 0.7326.

What about the Difference [2, 21] of the same molecule?
The Difference was −0.43.

What does the source list for `C[C@@H]1C[C@H]2[C@@H]3C[C@H](F)C4=CC(=O)C=C[C@]4(C)[C@@]3(F)[C@@H](O)C[C@]2(C)[C@@]1(OC(=O)c1ccco1)C(=O)SCF` [Fluticasone furoate]?
Cholesterol-free media + simvastatin (0.04 μM) [1, 3]: 0.7104; Complete Media [1, 4]: 0.7486; Difference [1, 5]: 0.04; Cholesterol-free [2, 20]: 1.047; Complete ([2]; NCI-H292 cells, complete media): 0.6144; Difference [2, 21]: −0.43

Which results are given for `OCc1ccccc1` [Benzyl alcohol]?
Cholesterol-free media + simvastatin (0.04 μM) [1, 14]: 0.8765; Complete Media [1, 15]: 1.062; Difference [1, 5]: 0.19; Difference [2, 17]: −0.14; Cholesterol-free [2, 18]: 1.033; Complete [2, 19]: 0.8945

For `CN(C)CCCN1c2ccccc2Sc2ccccc21` [Promazine (hydrochloride)], which “Cholesterol-free media + simvastatin (0.04 μM)” value [1, 14] is on record?
Its value is 0.8407.

What about the “Complete Media” value [1, 15] of the same molecule?
Its value is 0.9785.

What about the Difference [1, 5] of the same molecule?
Its Difference is 0.14.

What about the Difference [2, 17] of the same molecule?
Its Difference is −0.18.

What about the Cholesterol-free [2, 18] of the same molecule?
Its Cholesterol-free is 1.243.

And the Complete [2, 19]?
Its Complete is 1.064.

What does the source list for `CCCCC(=O)OCC(=O)[C@]1(O)Cc2c(O)c3c(c(O)c2[C@@H](O[C@H]2C[C@H](NC(=O)C(F)(F)F)[C@H](O)[C@H](C)O2)C1)C(=O)c1c(OC)cccc1C3=O` [Valrubicin]?
Cholesterol-free media + simvastatin (0.04 μM) [1, 3]: 0.07499; Complete Media [1, 4]: 0.1845; Difference [1, 5]: 0.11; Difference [2, 22]: 0.02; Cholesterol-free [2, 12]: 0.04622; Complete [2, 13]: 0.06624
